From EPA's ToxValDB 9.5 (doi:10.2903/j.efsa.2020.6227) come the findings set out here.

In one series the test system is Anas platyrhynchos. As to conditions: oral.
In another series the test system is Apis mellifera. As to conditions: acute, duration: 24 hours, mortality.
A further series deals with Bibionidae. The conditions noted are these: chronic/long-term; duration: 28 days.
The test system of the next series is Daphnia magna. As to conditions: chronic/long-term; duration: 21 days.
The subject of another series is Folsomia candida. The conditions noted are these: chronic/long-term; duration: 28 days; reproduction.
The test system of another series is Neomysis kadiakensis. The conditions noted are these: acute; duration: 96 hours; mortality.
Another series deals with Tagia sp. As to conditions: chronic/long-term; duration: 56 days; reproduction.

Where only a bound is given, the exact number is not on record here.

Regarding `CC[C@H](C)[C@H]1O[C@]2(C=C[C@@H]1C)C[C@@H]1C[C@@H](C/C=C(\C)[C@@H](O[C@H]3C[C@H](OC)[C@@H](O[C@H]4C[C@H](OC)[C@@H](O)[C@H](C)O4)[C@H](C)O3)[C@@H](C)/C=C/C=C3\CO[C@@H]4[C@H](O)C(C)=C[C@@H](C(=O)O1)[C@]34O)O2.CO[C@H]1C[C@H](O[C@H]2[C@H](C)O[C@@H](O[C@@H]3/C(C)=C/C[C@@H]4C[C@@H](C[C@]5(C=C[C@H](C)[C@@H](C(C)C)O5)O4)OC(=O)[C@@H]4C=C(C)[C@@H](O)[C@H]5OC/C(=C\C=C\[C@@H]3C)[C@]54O)C[C@@H]2OC)O[C@@H](C)[C@@H]1O` [Abamectin], the LD50 in the series with Anas platyrhynchos (acute, unspecified, mortality) was 26 mg/kg-day; in the series with Apis mellifera (dermal) it was 0.001 µg/piece; with Apis mellifera (oral, unspecified) it was 0.004 µg/piece; in the series on Rattus norvegicus (acute, oral, M, mortality) it was 8.7 mg/kg-day. In addition, the NOEC was 6 mg/kg with Anas platyrhynchos (reproductive, feed); 3.3 µg/kg in the series with Bibionidae; 0.0067 µg/L in the series on Daphnia magna; 0.04 mg/kg in the series with Folsomia candida; 0.52 µg/L in the series on Oncorhynchus mykiss (chronic/long-term, duration: 72 days); under 0.036 mg/kg in the series with Tagia sp.. Further, the LC50 worked out at 0.02 µg/L with Neomysis kadiakensis and 2.5 µg/L in the series with Oncorhynchus mykiss (acute, duration: 96 hours, mortality). In the series on Rattus norvegicus (developmental, development), the no observed adverse effect level (NOAEL) was found to be 0.12 mg/kg-day.

For orientation: LC50 means the concentration that kills 50% of the test population. The low end stands for a more lethal substance, the high end for a less lethal substance. Broadly, the NOAEL is the highest dose or exposure tested at which no adverse effect was seen.
